These results are taken from ChEMBL document CHEMBL3991601, “The target landscape of clinical kinase drugs” (Science, 2017).

Test [1] deals with T1, Beta-adrenergic receptor kinase 1 (Homo sapiens, UniProt P25098).
T1 sequence (P25098 whole entry): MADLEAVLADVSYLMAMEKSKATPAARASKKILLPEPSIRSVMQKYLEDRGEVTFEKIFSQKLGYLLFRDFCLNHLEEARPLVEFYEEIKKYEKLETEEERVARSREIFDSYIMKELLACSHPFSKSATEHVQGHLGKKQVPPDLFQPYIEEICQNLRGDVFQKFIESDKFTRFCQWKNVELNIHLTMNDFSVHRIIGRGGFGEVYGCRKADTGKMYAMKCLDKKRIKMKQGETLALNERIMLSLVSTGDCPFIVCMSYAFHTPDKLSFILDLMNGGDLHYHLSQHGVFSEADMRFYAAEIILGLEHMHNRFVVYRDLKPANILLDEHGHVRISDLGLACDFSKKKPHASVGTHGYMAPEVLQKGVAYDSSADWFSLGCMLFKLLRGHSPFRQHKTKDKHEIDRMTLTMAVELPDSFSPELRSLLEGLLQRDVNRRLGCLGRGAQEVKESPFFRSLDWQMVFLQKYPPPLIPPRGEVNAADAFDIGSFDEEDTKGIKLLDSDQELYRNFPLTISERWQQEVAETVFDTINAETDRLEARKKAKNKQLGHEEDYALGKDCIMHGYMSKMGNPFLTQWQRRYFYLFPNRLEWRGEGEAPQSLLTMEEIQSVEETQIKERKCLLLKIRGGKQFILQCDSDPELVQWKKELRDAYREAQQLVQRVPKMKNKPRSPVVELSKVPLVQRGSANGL

In test [2] the target is T2, Serine/threonine-protein kinase Chk1 (Homo sapiens, UniProt O14757).
T2 sequence (O14757 whole entry): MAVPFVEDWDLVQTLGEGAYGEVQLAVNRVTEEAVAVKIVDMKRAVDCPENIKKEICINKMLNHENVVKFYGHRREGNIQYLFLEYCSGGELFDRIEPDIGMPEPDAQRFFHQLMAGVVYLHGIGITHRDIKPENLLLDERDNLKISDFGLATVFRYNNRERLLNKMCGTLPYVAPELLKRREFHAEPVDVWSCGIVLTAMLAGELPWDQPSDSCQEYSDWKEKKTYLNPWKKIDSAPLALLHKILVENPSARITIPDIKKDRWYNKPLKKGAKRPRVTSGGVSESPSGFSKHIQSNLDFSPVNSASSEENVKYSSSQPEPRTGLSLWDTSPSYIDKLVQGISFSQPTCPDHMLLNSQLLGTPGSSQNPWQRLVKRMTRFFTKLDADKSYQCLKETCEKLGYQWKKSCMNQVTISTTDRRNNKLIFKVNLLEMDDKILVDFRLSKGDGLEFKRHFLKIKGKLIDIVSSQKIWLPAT

In test [3] the target is T3, Probable ATP-dependent RNA helicase DDX6 (Homo sapiens, UniProt P26196).
T3 sequence (P26196 whole entry): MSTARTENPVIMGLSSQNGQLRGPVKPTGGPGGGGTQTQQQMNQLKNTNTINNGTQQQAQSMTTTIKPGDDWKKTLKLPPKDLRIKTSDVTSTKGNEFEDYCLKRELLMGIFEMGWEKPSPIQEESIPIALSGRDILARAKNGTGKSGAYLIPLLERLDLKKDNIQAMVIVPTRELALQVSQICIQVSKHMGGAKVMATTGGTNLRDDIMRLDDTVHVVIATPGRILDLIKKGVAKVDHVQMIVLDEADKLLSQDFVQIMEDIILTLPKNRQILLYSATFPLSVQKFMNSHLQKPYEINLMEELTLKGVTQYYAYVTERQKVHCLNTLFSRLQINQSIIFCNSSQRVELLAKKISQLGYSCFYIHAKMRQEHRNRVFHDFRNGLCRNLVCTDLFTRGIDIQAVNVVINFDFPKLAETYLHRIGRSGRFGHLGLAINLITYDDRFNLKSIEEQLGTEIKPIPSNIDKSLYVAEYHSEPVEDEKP

Test [4] has as its target T4, Serine/threonine-protein kinase PLK4 (Homo sapiens, UniProt O00444).
T4 sequence (O00444 whole entry): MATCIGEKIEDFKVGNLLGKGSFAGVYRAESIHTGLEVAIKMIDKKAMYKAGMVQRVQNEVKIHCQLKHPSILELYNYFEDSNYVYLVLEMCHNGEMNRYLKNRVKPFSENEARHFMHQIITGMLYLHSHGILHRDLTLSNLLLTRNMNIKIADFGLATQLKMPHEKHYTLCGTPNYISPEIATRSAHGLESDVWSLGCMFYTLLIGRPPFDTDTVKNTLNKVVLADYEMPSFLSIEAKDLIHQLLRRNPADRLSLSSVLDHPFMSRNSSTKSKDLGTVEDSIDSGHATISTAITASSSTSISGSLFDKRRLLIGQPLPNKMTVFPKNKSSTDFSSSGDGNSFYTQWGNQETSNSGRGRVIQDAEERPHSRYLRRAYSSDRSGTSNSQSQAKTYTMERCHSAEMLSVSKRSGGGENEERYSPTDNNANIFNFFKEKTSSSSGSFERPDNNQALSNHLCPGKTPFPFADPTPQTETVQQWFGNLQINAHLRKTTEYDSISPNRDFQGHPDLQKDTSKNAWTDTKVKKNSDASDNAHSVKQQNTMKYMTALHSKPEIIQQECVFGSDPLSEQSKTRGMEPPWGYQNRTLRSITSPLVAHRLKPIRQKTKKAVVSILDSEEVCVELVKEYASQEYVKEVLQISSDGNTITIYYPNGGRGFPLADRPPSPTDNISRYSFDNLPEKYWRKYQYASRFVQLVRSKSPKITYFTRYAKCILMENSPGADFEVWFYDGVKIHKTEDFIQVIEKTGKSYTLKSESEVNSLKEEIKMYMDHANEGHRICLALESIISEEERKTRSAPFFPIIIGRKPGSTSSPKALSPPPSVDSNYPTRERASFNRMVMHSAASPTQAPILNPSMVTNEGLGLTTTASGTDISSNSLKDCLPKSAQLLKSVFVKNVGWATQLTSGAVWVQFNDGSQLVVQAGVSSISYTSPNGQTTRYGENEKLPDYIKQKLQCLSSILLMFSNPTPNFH

A further test deals with Obg-like ATPase 1 (Homo sapiens, UniProt Q9NTK5).

Activity calls are given as the source filed them.
Also: in the data inactive means no Kd found up to 30 µM.

Sequence of Obg-like ATPase 1 (Q9NTK5 whole entry, looked up): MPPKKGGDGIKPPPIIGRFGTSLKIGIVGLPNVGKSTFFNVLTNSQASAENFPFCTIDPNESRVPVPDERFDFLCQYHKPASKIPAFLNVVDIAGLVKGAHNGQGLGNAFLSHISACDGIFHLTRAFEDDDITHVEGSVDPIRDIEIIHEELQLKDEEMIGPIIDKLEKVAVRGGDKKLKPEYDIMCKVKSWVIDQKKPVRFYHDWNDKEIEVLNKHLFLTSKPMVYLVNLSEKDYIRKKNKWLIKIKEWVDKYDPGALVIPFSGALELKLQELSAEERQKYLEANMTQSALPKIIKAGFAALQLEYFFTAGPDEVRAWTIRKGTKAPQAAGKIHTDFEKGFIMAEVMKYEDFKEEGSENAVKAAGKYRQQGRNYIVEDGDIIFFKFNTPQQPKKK

Consider `O[C@H]1CC[C@H](Nc2ncc3nc(Nc4c(F)cc(F)cc4F)n([C@H]4CCOC4)c3n2)CC1` [TANZISERTIB], for which the Kd in test [1], in test [2], in test [3] and in test [4] was > 30 µM (inactive) each time.

As for `Cn1c(=O)n(-c2ccc(C(C)(C)C#N)cc2)c2c3cc(-c4cnc5ccccc5c4)ccc3ncc21` [DACTOLISIB], the Kd (in test [1]; in test [3]; on Obg-like ATPase 1; in test [4]) was > 30 µM (inactive) each time.

On to `O=c1[nH]c([C@@H]2CCCN2)nc2c1oc1ccc(Cl)cc12`, for which the Kd in test [1], in test [2], in test [3] and in test [4] was > 30 µM (inactive) each time.

Consider `O=C(O)c1ccc2c(c1)nc(Nc1cccc(Cl)c1)c1ccncc12` [SILMITASERTIB], for which the Kd in test [1] is > 30 µM (inactive); in test [2], 6.17 µM (active); in test [3], > 30 µM (inactive); in test [4] it was > 30 µM (inactive).

On to `C[C@@]1(C(=O)Nc2ccc(F)nc2)CCCN1c1nc(Nc2cc(C3CC3)n[nH]2)c2cccn2n1` [BMS-754807], for which the Kd (in test [3]; at Obg-like ATPase 1) was > 30 µM (inactive) in each case.

Turning to `O=C(Nc1ccc(OC(F)(F)F)cc1)c1sccc1NCc1ccnc2ccccc12` [OSI-930], the Kd in test [1], in test [2], in test [3] and in test [4] was > 30 µM (inactive) in each case.

In the case of `CC[C@@](C)(Nc1ccnc(-c2c[nH]c3ncccc23)n1)C(=O)NCC(F)(F)F` [DECERNOTINIB], the Kd in test [1], in test [2] and in test [3] was > 30 µM (inactive) throughout.

Consider `CN(c1ncccc1CNc1nc(Nc2ccc3c(c2)CC(=O)N3)ncc1C(F)(F)F)S(C)(=O)=O` [PF-00562271], for which the Kd (in test [1]; in test [3]; at Obg-like ATPase 1) was > 30 µM (inactive) throughout.

For the compound `CN1CCN(c2nc(C3=C(c4c[nH]c5ccccc45)C(=O)NC3=O)c3ccccc3n2)CC1` [SOTRASTAURIN], the Kd in test [1], in test [2], in test [3] and in test [4] was > 30 µM (inactive) each time.

`COc1cc2c(Oc3ccc4[nH]c(C)cc4c3F)ncnc2cc1OCCCN1CCCC1` [CEDIRANIB]: the Kd (in test [1]; in test [3]; on Obg-like ATPase 1) was > 30 µM (inactive) each time.

As for `CCN1CCN(Cc2ccc(Nc3ncc(F)c(-c4cc(F)c5nc(C)n(C(C)C)c5c4)n3)nc2)CC1` [ABEMACICLIB], the Kd in test [1], in test [2], in test [3] and in test [4] was > 30 µM (inactive) in each case.

With `Cn1cnc2c(F)c(Nc3ccc(Br)cc3Cl)c(C(=O)NOCCO)cc21` [SELUMETINIB], the Kd (in test [1]; in test [3]; on Obg-like ATPase 1) was > 30 µM (inactive) each time.

Take `COc1cc2c(N3CCN(C(=O)Nc4ccc(OC(C)C)cc4)CC3)ncnc2cc1OCCCN1CCCCC1` [TANDUTINIB]: the Kd (in test [1]; in test [3]; at Obg-like ATPase 1) was > 30 µM (inactive) in each case.

For the compound `C=CCN(/C=C1/C(=O)O[C@H](COC)[C@@]2(C)C1=C(O)C(=O)C1=C2[C@H](OC(C)=O)C[C@]2(C)C(=O)CC[C@@H]12)CC=C` [SONOLISIB], the Kd in test [1], in test [2] and in test [4] was > 30 µM (inactive) in each case.

Regarding `CCN(CCCOc1ccc2c(Nc3cc(CC(=O)Nc4cccc(F)c4)n[nH]3)ncnc2c1)CCOP(=O)(O)O` [BARASERTIB], the Kd (in test [1]; in test [3]; at Obg-like ATPase 1; in test [4]) was > 30 µM (inactive) throughout.

For `COc1cccc(Nc2ncnn3ccc(CN4CC[C@@H](N)[C@H](O)C4)c23)c1` [BMS-690514], the Kd in test [1] was > 30 µM (inactive); in test [2], 1.87 µM (active); in test [4], > 30 µM (inactive).

As for `CC1(C)CNc2cc(NC(=O)c3cccnc3NCc3ccncc3)ccc21` [MOTESANIB], the Kd (in test [1]; in test [3]; at Obg-like ATPase 1) was > 30 µM (inactive) in each case.

Consider `Cn1cc(-c2[nH]c3cc(NC(=O)[C@H](N)C4CCCCC4)cc4c3c2C=NNC4=O)cn1`, for which the Kd in test [1] was 3.56 µM (active); in test [3], > 30 µM (inactive); on Obg-like ATPase 1 it was > 30 µM (inactive).

With `FC(F)(F)c1ccc(CNc2ccc(Cc3c[nH]c4ncc(Cl)cc34)cn2)cn1` [PEXIDARTINIB], the Kd in test [1], in test [2], in test [3] and in test [4] was > 30 µM (inactive) throughout.

For the compound `CC(C)(O)CC(=O)NCCn1ccc2ncnc(Nc3ccc(Oc4cccc(C(F)(F)F)c4)c(Cl)c3)c21` [TAK-285], the Kd in test [1], in test [2], in test [3] and in test [4] was > 30 µM (inactive) in each case.

Turning to `CCc1nc(C(N)=O)c(Nc2ccc(N3CCC(N4CCN(C)CC4)CC3)c(OC)c2)nc1NC1CCOCC1` [GILTERITINIB], the Kd was > 30 µM (inactive) in test [1], > 30 µM (inactive) in test [2], > 30 µM (inactive) in test [3] and 0.018 µM in test [4].

`CN(C)C/C=C/C(=O)Nc1cc2c(Nc3ccc(F)c(Cl)c3)ncnc2cc1O[C@H]1CCOC1` [AFATINIB]: the Kd (in test [1]; in test [3]; on Obg-like ATPase 1) was > 30 µM (inactive) throughout.

On to `O=S(=O)(c1cccc2cnccc12)N1CCCNCC1` [FASUDIL], for which the Kd (in test [1]; in test [3]; on Obg-like ATPase 1) was > 30 µM (inactive) each time.

`C[C@]1(O)C[C@@H](c2nc(-c3ccc4ccc(-c5ccccc5)nc4c3)c3c(N)nccn32)C1` [LINSITINIB]: the Kd in test [1] and in test [3] was > 30 µM (inactive) in each case.

As a reminder, the Kd is the concentration at which binding is half-saturated.
